According to PubChem BioAssay (NCI):
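How tested: cells in 96-well plates exposed to compound for 48 hours at five concentrations. Here, GI50 denotes the concentration required for 50% inhibition of growth. Definition used: TGI = concentration required for complete inhibition of growth.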

Legend:
Assay in all cases: NCI tumour cell line growth inhibition, 48 h
DU-145 prostate = tested on: DU-145 prostate
MDA-MB-231 breast = tested on: MDA-MB-231 breast
MDA-MB-435 = tested on: MDA-MB-435
786-0 renal = tested on: 786-0 renal
PC-3 prostate = tested on: PC-3 prostate
MCF7 breast = tested on: MCF7 breast
SR leukemia = tested on: SR leukemia
LXFL 529 NSCLC = tested on: LXFL 529 NSCLC
M19-MEL melanoma = tested on: M19-MEL melanoma
RXF-631 renal = tested on: RXF-631 renal
XF 498 CNS = tested on: XF 498 CNS
BT-549 breast = tested on: BT-549 breast
DMS 114 small cell lung = tested on: DMS 114 small cell lung
P388/ADR leukemia = tested on: P388/ADR leukemia

`Cc1ccc(Nc2nc(N)nc3c2ncn3C2OC(CO)C(O)C2O)cc1` (stereo not given) showed a TGI (DU-145 prostate) greater than 100 µM, a TGI (MDA-MB-231 breast) greater than 100 µM and a TGI (MDA-MB-435) greater than 100 µM. The TGI (786-0 renal) was greater than 100 µM, the TGI (PC-3 prostate) was greater than 100 µM and the TGI (MCF7 breast) was greater than 100 µM.

In the case of `C(=NCc1ccccc1)c1ccccc1-c1ccccc1C=NCc1ccccc1`, the TGI (SR leukemia) is reported as greater than 10 µM, the TGI (DU-145 prostate) is reported as greater than 10 µM and the TGI (MDA-MB-231 breast) is reported as greater than 10 µM. For the same molecule, the TGI (MDA-MB-435) was greater than 10 µM, the TGI (786-0 renal) was greater than 10 µM and the TGI (PC-3 prostate) was greater than 10 µM. It also gave a TGI (MCF7 breast) greater than 10 µM.

`N=C(N)c1csc([C@@H]2O[C@H](CO)[C@@H](O)[C@H]2O)n1` showed a TGI (SR leukemia) greater than 100 µM, a TGI (LXFL 529 NSCLC) greater than 100 µM and a TGI (M19-MEL melanoma) greater than 100 µM. The TGI (RXF-631 renal) was greater than 100 µM and the TGI (XF 498 CNS) was greater than 100 µM.

`CC(C)(C)[Si](C)(C)OCC1CCC(n2cnc3c(N)ncnc32)O1` (stereo not given) gave a TGI (DU-145 prostate) greater than 100 µM, a TGI (MDA-MB-231 breast) greater than 100 µM and a TGI (MDA-MB-435) of 85.2 µM. It also gave a TGI (PC-3 prostate) greater than 100 µM and a TGI (BT-549 breast) of 87 µM.

`Cc1cccc2[s+]snc12` was tested, and the TGI (SR leukemia) was 77.8 µM, the TGI (DMS 114 small cell lung) was greater than 100 µM and the TGI (786-0 renal) was greater than 100 µM. For the same molecule, the TGI (LXFL 529 NSCLC) was greater than 92.5 µM, the TGI (M19-MEL melanoma) was greater than 100 µM and the TGI (RXF-631 renal) was 43.4 µM. For the same molecule, the TGI (XF 498 CNS) was greater than 100 µM.

For `COC(=O)c1ccc(N=NN(C)COc2ccc([N+](=O)[O-])cc2)cc1`, the TGI (DMS 114 small cell lung) was greater than 100 µM, the TGI (MCF7 breast) was greater than 100 µM and the TGI (M19-MEL melanoma) was greater than 100 µM. For the same molecule, the TGI (P388/ADR leukemia) was greater than 100 µM and the TGI (XF 498 CNS) was greater than 100 µM.

In the case of `O=C(O)C1Cc2c([nH]c3ccccc23)C=N1` (stereo not given), the TGI (DMS 114 small cell lung) is reported as greater than 100 µM, the TGI (MCF7 breast) is reported as greater than 100 µM and the TGI (M19-MEL melanoma) is reported as greater than 100 µM. For the same molecule, the TGI (P388/ADR leukemia) was greater than 100 µM and the TGI (XF 498 CNS) was greater than 100 µM.

`O=C1c2ccccc2-c2ccc(N=Nc3c(O)ccc4ccccc34)cc21` was tested, and the TGI (DU-145 prostate) was greater than 100 µM, the TGI (MDA-MB-231 breast) was greater than 100 µM and the TGI (MDA-MB-435) was greater than 100 µM. It also gave a TGI (786-0 renal) greater than 100 µM, a TGI (PC-3 prostate) greater than 100 µM and a TGI (BT-549 breast) greater than 100 µM.

`COc1cc(C2=C(C#N)C(N)OC3=C2COc2ccccc23)cc(OC)c1OC` (stereo not given) gave a TGI (SR leukemia) greater than 100 µM, a TGI (DU-145 prostate) of 25.8 µM and a TGI (MDA-MB-231 breast) of 43.8 µM. For the same molecule, the TGI (MDA-MB-435) was greater than 100 µM, the TGI (PC-3 prostate) was 50.6 µM and the TGI (BT-549 breast) was greater than 100 µM. The TGI (MCF7 breast) was greater than 100 µM.

`C/C(=N/O)c1cccc(Nc2nc3ccc(Cl)cc3c3[nH]c4ccccc4c23)c1` gave a TGI (SR leukemia) greater than 100 µM, a TGI (DU-145 prostate) of 4.41 µM and a TGI (MDA-MB-231 breast) of 9.32 µM. For the same molecule, the TGI (MDA-MB-435) was 3.99 µM, the TGI (786-0 renal) was 5.22 µM and the TGI (PC-3 prostate) was 4.7 µM. The TGI (BT-549 breast) was 11.6 µM and the TGI (MCF7 breast) was 2.75 µM.

Molecule `c1cn2cc(-c3ccc4ncn(C5CCCCC5)c4c3)nc(-c3ccc4c(c3)ncn4C3CCCCC3)c2n1` has a GI50 (SR leukemia) of 2870 nM, a TGI (SR leukemia) greater than 100 µM and a GI50 (MDA-MB-231 breast) of 1.29 µM. The TGI (MDA-MB-231 breast) was 3.08 µM, the GI50 (MDA-MB-435) was 1770 nM and the TGI (MDA-MB-435) was 3.54 µM. The GI50 (BT-549 breast) was 1940 nM, the TGI (BT-549 breast) was 3.64 µM and the GI50 (MCF7 breast) was 1800 nM. It also gave a TGI (MCF7 breast) of 4.58 µM.

In the case of `CC12CCC(C(=O)N3CC=CCC3)(OC1=O)C2(C)C` (stereo not given), the TGI (DMS 114 small cell lung) is reported as greater than 100 µM, the TGI (MCF7 breast) is reported as greater than 100 µM and the TGI (M19-MEL melanoma) is reported as greater than 100 µM. For the same molecule, the TGI (P388/ADR leukemia) was greater than 100 µM and the TGI (XF 498 CNS) was greater than 100 µM.

In the case of `CCC(=O)NC(Nc1ccc(O)cc1)(C(F)(F)F)C(F)(F)F`, the TGI (SR leukemia) is reported as greater than 100 µM, the TGI (DU-145 prostate) is reported as greater than 100 µM and the TGI (MDA-MB-231 breast) is reported as greater than 100 µM. The TGI (MDA-MB-435) was 65.7 µM, the TGI (BT-549 breast) was greater than 100 µM and the TGI (MCF7 breast) was greater than 100 µM.

For `O=[N+]([O-])c1ccc(Nc2nc3ccccc3s2)cc1`, the TGI (SR leukemia) was 34.5 µM, the TGI (DU-145 prostate) was greater than 100 µM and the TGI (MDA-MB-231 breast) was 40.2 µM. For the same molecule, the TGI (MDA-MB-435) was greater than 100 µM, the TGI (PC-3 prostate) was 35.1 µM and the TGI (BT-549 breast) was 81.4 µM.

In the case of `Nc1ccc2c3c(n(CCCCl)c(=O)c2c1)-c1cc2c(cc1C3=O)OCO2`, the GI50 (SR leukemia) is reported as 26.8 nM, the TGI (SR leukemia) is reported as greater than 100 µM and the GI50 (MDA-MB-231 breast) is reported as 60.1 µM. The TGI (MDA-MB-231 breast) was greater than 100 µM, the GI50 (MDA-MB-435) was greater than 100000 nM and the TGI (MDA-MB-435) was greater than 100 µM. It also gave a GI50 (PC-3 prostate) greater than 100 µM and a TGI (PC-3 prostate) greater than 100 µM.

`O=C1C(=O)c2ccccc2C(O)=C1CN(CCCl)CCCl` gave a TGI (SR leukemia) greater than 100 µM, a TGI (786-0 renal) greater than 100 µM and a TGI (LXFL 529 NSCLC) greater than 100 µM. For the same molecule, the TGI (M19-MEL melanoma) was greater than 100 µM, the TGI (RXF-631 renal) was greater than 100 µM and the TGI (XF 498 CNS) was greater than 100 µM.

For `COC1CC(OC2CCC3(C)C(CCC45CCC(C6=CC(=O)OC6)C(C)(CCC43)C5=O)C2)OC(C)C1O` (stereo not given), the TGI (SR leukemia) was 71.8 µM, the TGI (DU-145 prostate) was 29.3 µM and the TGI (MDA-MB-231 breast) was greater than 100 µM. For the same molecule, the TGI (MDA-MB-435) was greater than 100 µM, the TGI (786-0 renal) was 64.8 µM and the TGI (PC-3 prostate) was greater than 100 µM. For the same molecule, the TGI (BT-549 breast) was 55.3 µM and the TGI (MCF7 breast) was greater than 100 µM.
